Common to all, as to type: binding
Test [1] concerns the target T1, PDZ protein (GST-PDZ fusion) (Homo sapiens, UniProt Q9NZN5).
T1 construct: made in house; host or cells: E. coli (DH5alpha, BL21 or JM109)
Kind of test: G' assay (10 uM PL peptide), results of TABLE 7 and TABLE 12. The note with it: PDZ KIAA0382, PDZ Domain 1. In outline:
(§1)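 Biotin-PL peptide (N-term label), 10 uM vs GST-PDZ; protein 5 ug/ml by default. A450 nm binned: 1 = 0-1, 2 = 1-2, 3 = 2-3, 4 = 3-4, 5 = >4 on >2 repeats, 0 = no binding.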

In test [2] the target is T2, PDZ protein (GST-PDZ fusion) (Homo sapiens, UniProt Q9P202).
T2 construct: made in house; host or cells: E. coli (DH5alpha, BL21 or JM109)
T2 sequence (Q9P202 1-907): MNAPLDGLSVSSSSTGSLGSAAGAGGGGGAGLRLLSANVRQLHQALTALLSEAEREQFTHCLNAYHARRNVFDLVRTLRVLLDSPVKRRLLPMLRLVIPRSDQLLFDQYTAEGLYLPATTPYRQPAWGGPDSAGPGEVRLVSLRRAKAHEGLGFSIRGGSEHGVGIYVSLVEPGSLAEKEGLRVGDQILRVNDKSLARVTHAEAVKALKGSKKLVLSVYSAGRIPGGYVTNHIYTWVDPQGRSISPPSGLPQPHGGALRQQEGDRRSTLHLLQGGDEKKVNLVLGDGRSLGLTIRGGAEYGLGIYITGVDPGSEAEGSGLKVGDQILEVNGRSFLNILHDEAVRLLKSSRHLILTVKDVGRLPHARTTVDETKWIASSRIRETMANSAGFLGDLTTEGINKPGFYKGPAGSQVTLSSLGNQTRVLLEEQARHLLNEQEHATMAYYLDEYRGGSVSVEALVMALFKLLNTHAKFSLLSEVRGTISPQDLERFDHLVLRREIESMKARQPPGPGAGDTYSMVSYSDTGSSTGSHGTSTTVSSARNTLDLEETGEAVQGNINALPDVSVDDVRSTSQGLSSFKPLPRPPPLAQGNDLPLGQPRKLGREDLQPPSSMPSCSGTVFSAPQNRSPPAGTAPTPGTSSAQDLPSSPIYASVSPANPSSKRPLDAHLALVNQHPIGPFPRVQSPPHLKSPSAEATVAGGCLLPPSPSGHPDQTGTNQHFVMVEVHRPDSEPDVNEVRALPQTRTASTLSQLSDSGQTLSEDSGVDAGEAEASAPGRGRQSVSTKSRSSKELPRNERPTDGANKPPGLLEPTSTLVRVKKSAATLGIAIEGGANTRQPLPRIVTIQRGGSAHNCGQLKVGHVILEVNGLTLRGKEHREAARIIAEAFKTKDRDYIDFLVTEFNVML
The description is as above. Conditions: PDZ KIAA1526, PDZ Domain 1. A digest of the protocol: as §1

Test [3] addresses PDZ-domain polypeptide (GST/PDZ fusion protein). The test is described as follows: Apparent affinity (Kd) by titration of PL peptide in the G assay. A digest of the protocol:
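A fixed concentration of GST/PDZ fusion protein, 5 ug/ml by default, was mixed in solution with increasing labeled PL peptide (e.g. 0.1 uM-1 mM). Reaction times ranged from 10 minutes to 2 days at 4-37° C. Complexes were separated from free peptide and detected via the label as in the G assay, apparent affinity coming from the saturating concentration.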

The target in test [4] is T3, PDZ protein (GST-PDZ fusion) (Homo sapiens, UniProt O14907).
T3 construct: made in house; host or cells: E. coli (DH5alpha, BL21 or JM109)
T3 sequence (O14907 1-124): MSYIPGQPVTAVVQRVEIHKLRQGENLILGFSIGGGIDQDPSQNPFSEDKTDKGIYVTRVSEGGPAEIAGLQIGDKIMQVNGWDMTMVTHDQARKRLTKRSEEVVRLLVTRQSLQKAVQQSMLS
Kind of test: G' assay (10 uM PL peptide), results of TABLE 7 and TABLE 12. Conditions: PDZ TIP1, PDZ Domain 1. In outline: as §1

Setting [5] is: PDZ SHANK, PDZ Domain 1, read-out: Peptide Optimal Conc (Kd by titration of the PL peptide).
[6] abbreviates: PDZ BAI-1, PDZ Domain 2, read-out: Peptide Optimal Conc (Kd by titration of the PL peptide).

Read-outs that look alike come from different tables or passages of the source. Ends that are not written are not given here. Peptide text beside a SMILES is read from it. * marks the point of attachment. Biotin = O=C1N[C@H]2[C@H](CS[C@H]2CCCCC(=O)*)N1

T1 sequence (Q9NZN5 whole entry, the tested form may be a part): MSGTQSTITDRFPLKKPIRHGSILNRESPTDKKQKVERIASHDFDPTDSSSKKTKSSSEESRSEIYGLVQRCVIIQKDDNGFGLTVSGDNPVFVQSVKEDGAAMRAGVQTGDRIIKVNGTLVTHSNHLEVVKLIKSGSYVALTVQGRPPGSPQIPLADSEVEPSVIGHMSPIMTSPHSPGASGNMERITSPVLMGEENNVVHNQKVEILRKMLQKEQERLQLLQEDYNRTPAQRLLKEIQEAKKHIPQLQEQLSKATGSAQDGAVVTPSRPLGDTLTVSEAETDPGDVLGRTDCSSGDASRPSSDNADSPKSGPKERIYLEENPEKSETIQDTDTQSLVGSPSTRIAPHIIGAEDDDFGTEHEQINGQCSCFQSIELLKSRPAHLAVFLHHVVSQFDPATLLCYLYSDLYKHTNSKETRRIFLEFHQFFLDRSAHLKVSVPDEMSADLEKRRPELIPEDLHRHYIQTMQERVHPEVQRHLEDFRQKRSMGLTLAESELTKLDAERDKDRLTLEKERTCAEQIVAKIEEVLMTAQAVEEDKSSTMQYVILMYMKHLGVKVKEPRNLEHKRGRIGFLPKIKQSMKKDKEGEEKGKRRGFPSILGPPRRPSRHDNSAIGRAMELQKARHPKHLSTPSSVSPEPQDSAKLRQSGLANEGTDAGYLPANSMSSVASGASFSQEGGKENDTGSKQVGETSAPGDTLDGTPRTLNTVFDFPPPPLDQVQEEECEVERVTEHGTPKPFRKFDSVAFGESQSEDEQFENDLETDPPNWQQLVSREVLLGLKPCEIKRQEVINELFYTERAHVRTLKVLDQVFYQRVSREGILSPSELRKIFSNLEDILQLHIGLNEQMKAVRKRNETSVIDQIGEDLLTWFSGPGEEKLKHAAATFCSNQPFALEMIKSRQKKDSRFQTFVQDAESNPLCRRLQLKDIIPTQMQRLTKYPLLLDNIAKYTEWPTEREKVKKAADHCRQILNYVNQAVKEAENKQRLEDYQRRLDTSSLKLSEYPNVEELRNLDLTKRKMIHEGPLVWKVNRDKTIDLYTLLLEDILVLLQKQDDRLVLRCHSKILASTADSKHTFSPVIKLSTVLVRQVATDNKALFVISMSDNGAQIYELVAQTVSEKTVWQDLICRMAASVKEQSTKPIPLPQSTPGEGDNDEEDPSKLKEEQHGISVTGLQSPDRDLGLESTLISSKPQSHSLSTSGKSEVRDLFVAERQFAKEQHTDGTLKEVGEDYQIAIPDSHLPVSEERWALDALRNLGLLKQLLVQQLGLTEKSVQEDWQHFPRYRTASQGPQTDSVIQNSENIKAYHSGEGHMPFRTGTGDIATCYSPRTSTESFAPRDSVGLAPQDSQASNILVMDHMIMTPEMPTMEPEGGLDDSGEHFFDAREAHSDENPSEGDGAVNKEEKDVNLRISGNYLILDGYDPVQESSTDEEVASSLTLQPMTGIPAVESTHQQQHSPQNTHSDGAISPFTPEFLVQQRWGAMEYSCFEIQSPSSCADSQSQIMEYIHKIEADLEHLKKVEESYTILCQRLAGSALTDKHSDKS

In the case of “VHDAESSDEDGYDWGPATDL (Biotin-VHDAESSDEDGYDWGPATDL) [zona occludens 3 (ZO-3)]”, the results for the Classification in test [1] and in test [2] were 2 (A450 nm 1-2) and 1 (A450 nm 0-1), respectively.

In the case of “QATSRNGHSARQHVVADTEL (Biotin-QATSRNGHSARQHVVADTEL) [CD34]”, the Classification in test [1] was 1 (A450 nm 0-1).

As to `CC(C)C[C@H](NC(=O)[C@H](CC(=O)O)NC(=O)[C@H](CO)NC(=O)[C@H](CCC(=O)O)NC(=O)CNC(=O)[C@H](Cc1ccc(O)cc1)NC(=O)[C@H](CC(C)C)NC(=O)[C@H](C)NC(=O)[C@H](CO)NC(=O)[C@H](CO)NC(=O)[C@H](Cc1ccccc1)NC(=O)[C@H](C)NC(=O)[C@H](C)NC(=O)[C@H](Cc1ccc(O)cc1)NC(=O)[C@H](CC(=O)O)NC(=O)[C@H](CC(C)C)NC(=O)[C@H](C)NC(=O)CNC(=O)[C@@H]1CCCN1C(=O)[C@@H](NC(=O)CCCC[C@@H]1SC[C@@H]2NC(=O)N[C@@H]21)C(C)C)C(=O)O` [a-actinin 2] (Biotin-VPGALDYAAFSSALYGESDL-OH; C-terminus assumed), the Kd in test [3] (PDZ TAX IP2, PDZ Domain 1, titration of the PL peptide, read-out: Peptide Optimal Conc (Kd, dissociation constant)) is 2500 nM. For the same compound, the Classification in test [4] is 5 (A450 nm of 4 more than 2× repeated); in test [2] it was 1 (A450 nm 0-1).

With `CC[C@H](C)[C@H](NC(=O)[C@H](CCC(N)=O)NC(=O)[C@@H](NC(=O)[C@H](Cc1c[nH]cn1)NC(=O)[C@H](CCC(N)=O)NC(=O)[C@H](CC(=O)O)NC(=O)[C@H](CCC(=O)O)NC(=O)[C@H](CC(=O)O)NC(=O)[C@H](Cc1ccccc1)NC(=O)[C@@H]1CCCN1C(=O)[C@H](CCC(=O)O)NC(=O)[C@H](CC(N)=O)NC(=O)[C@H](CCC(=O)O)NC(=O)[C@@H]1CCCN1C(=O)[C@H](CC(=O)O)NC(=O)[C@H](CO)NC(=O)[C@H](CC(=O)O)NC(=O)CCCC[C@@H]1SC[C@@H]2NC(=O)N[C@@H]21)[C@@H](C)O)C(=O)N[C@H](C(=O)N[C@@H](CCCCN)C(=O)N[C@H](C(=O)O)C(C)C)[C@@H](C)O` [PTEN], the Kd in test [3] (setting [5]) worked out at 1500 nM. In addition, the Classification in test [4] is 2 (A450 nm 1-2).

As for `CC[C@H](C)[C@H](NC(=O)[C@H](CC(=O)O)NC(=O)[C@H](CCC(=O)O)NC(=O)[C@H](CCCNC(=N)N)NC(=O)[C@@H](NC(=O)CCCC[C@@H]1SC[C@@H]2NC(=O)N[C@@H]21)[C@@H](C)O)C(=O)N[C@@H](Cc1ccc(O)cc1)C(=O)N[C@H](C(=O)N[C@@H](CC(N)=O)C(=O)N[C@@H](Cc1ccc(O)cc1)C(=O)N1CCC[C@H]1C(=O)N[C@H](C(=O)N[C@@H](Cc1ccccc1)C(=O)N[C@@H](CO)C(=O)N[C@@H](CCCNC(=N)N)C(=O)N[C@@H](CCCNC(=N)N)C(=O)N1CCC[C@H]1C(=O)N[C@@H](CCCCN)C(=O)N[C@H](C(=O)N[C@@H](CCCNC(=N)N)C(=O)N[C@H](C(=O)O)C(C)C)[C@@H](C)O)[C@@H](C)O)C(C)C` [DNAM-1] (Biotin-TREDIYVNYPTFSRRPKTRV-OH; C-terminus assumed), the Kd in test [3] (setting [6]) was 4000 nM. Further, the Classification in test [4] was 1 (A450 nm 0-1).

As to `CC(C)C[C@H](NC(=O)[C@H](C)NC(=O)[C@H](CO)NC(=O)CNC(=O)[C@@H](NC(=O)CCCC[C@@H]1SC[C@@H]2NC(=O)N[C@@H]21)[C@@H](C)O)C(=O)N[C@@H](CCC(N)=O)C(=O)N[C@@H](C)C(=O)N[C@@H](Cc1c[nH]c2ccccc12)C(=O)N[C@@H](CCCNC(=N)N)C(=O)N[C@@H](Cc1c[nH]cn1)C(=O)N[C@H](C(=O)N[C@@H](CO)C(=O)N[C@@H](CCCNC(=N)N)C(=O)N[C@@H](CCC(N)=O)C(=O)N[C@@H](C)C(=O)N[C@H](C(=O)N[C@@H](CCC(=O)O)C(=O)N[C@@H](CO)C(=O)N[C@H](C(=O)N[C@H](C(=O)O)C(C)C)[C@@H](C)O)[C@@H](C)O)[C@@H](C)O` [HPV E6 #66 (modified)] (Biotin-TGSALQAWRHTSRQATESTV-OH; C-terminus assumed), the Kd in test [3] (setting [6]) stood at 3000 nM. Moreover, the figures for the Classification in test [4] and in test [2] were 5 (A450 nm of 4 more than 2× repeated) and 1 (A450 nm 0-1), respectively.

Turning to `CC[C@H](C)[C@H](NC(=O)[C@H](CO)NC(=O)[C@H](CCC(=O)O)NC(=O)[C@H](Cc1ccc(O)cc1)NC(=O)[C@H](CC(=O)O)NC(=O)[C@H](CC(N)=O)NC(=O)[C@H](CCC(=O)O)NC(=O)[C@H](CCCCN)NC(=O)CCCC[C@@H]1SC[C@@H]2NC(=O)N[C@@H]21)C(=O)N[C@@H](CO)C(=O)N[C@@H](CC(=O)O)C(=O)N[C@@H](CC(C)C)C(=O)N[C@@H](CCC(N)=O)C(=O)N[C@@H](CCC(N)=O)C(=O)NCC(=O)N[C@@H](CCCNC(=N)N)C(=O)N[C@@H](CC(=O)O)C(=O)N[C@H](C(=O)N[C@H](C(=O)N[C@@H](CCCNC(=N)N)C(=O)N[C@@H](CC(C)C)C(=O)O)[C@@H](C)O)[C@@H](C)CC` [PAG] (Biotin-KENDYESISDLQQGRDITRL-OH; C-terminus assumed), the Classification in test [1] is reported as 1 (A450 nm 0-1).

For the compound “LASKSAEEGKQIPDSLSTDL (Biotin-LASKSAEEGKQIPDSLSTDL) [Dock2]”, the Classification in test [1] is recorded as 1 (A450 nm 0-1).

Consider “LNETTETQRTLLNGDLQTSI (Biotin-LNETTETQRTLLNGDLQTSI) [SSTR2 (somatostatin recepor 2)]”, for which the Classification in test [1] and in test [2] was 1 (A450 nm 0-1) in each case.

On to “KTMPAAMFRLLTGQETPLYI (Biotin-KTMPAAMFRLLTGQETPLYI) [MINT-2]”, for which the Classification in test [1] is on record as 1 (A450 nm 0-1).

Regarding `CC[C@H](C)[C@H](NC(=O)[C@H](Cc1ccc(O)cc1)NC(=O)[C@@H](NC(=O)[C@@H]1CCCN1C(=O)[C@H](CCC(N)=O)NC(=O)[C@H](CCC(=O)O)NC(=O)[C@H](CCC(N)=O)NC(=O)[C@H](C)NC(=O)[C@@H](NC(=O)[C@H](CC(C)C)NC(=O)[C@H](CC(C)C)NC(=O)[C@H](CCCNC(=N)N)NC(=O)[C@H](Cc1ccc(O)cc1)NC(=O)[C@H](CCSC)NC(=O)[C@H](C)NC(=O)[C@H](C)NC(=O)[C@@H]1CCCN1C(=O)[C@H](CCSC)NC(=O)[C@@H](NC(=O)[C@H](CCCCN)NC(=O)CCCC[C@@H]1SC[C@@H]2NC(=O)N[C@@H]21)[C@@H](C)O)[C@@H](C)O)C(C)C)C(=O)O` [MINT-1] (Biotin-KTMPAAMYRLLTAQEQPVYI-OH; C-terminus assumed), in test [1], the Classification is on record as 1 (A450 nm 0-1).

Turning to `CC(C)C[C@H](NC(=O)CNC(=O)[C@@H](NC(=O)[C@H](CO)NC(=O)[C@H](CC(N)=O)NC(=O)[C@H](Cc1ccccc1)NC(=O)CNC(=O)[C@H](C)NC(=O)[C@H](C)NC(=O)[C@H](Cc1ccccc1)NC(=O)[C@@H](NC(=O)CCCC[C@@H]1SC[C@@H]2NC(=O)N[C@@H]21)[C@@H](C)O)[C@@H](C)O)C(=O)N1CCC[C@H]1C(=O)N[C@@H](Cc1c[nH]cn1)C(=O)N[C@@H](CO)C(=O)N[C@H](C(=O)N[C@H](C(=O)N[C@@H](CCCNC(=N)N)C(=O)N[C@H](C(=O)O)C(C)C)[C@@H](C)O)[C@@H](C)O` [Neuroligin] (Biotin-TFAAGFNSTGLPHSTTRV-OH; C-terminus assumed), in test [3] (setting [5]), the Kd was 300 nM. Besides, the Classification in test [4] is listed as 1 (A450 nm 0-1).

Consider “APC—adenomatous polyposis coli protein (ESSGTQSPKRHSGSYLVTSV)”, for which the Classification in test [1] is 1 (A450 nm 0-1); in test [4], 3 (A450 nm 2-3).

For the origin of these results see patent US20050282743A1, “Molecular interactions in cells” (Arbor Vita Corporation, priority 2001, published 2005).
